Tests used:
Type in all cases: cell-based
[1] = system: Streptococcus thermophilus OLS3059 strain; assay: Fermentation promoting effect in UHT sterilized milk, pH of the fermentation liquid over time; conditions: 43° C.; for fermentation promoting effect (pH of the fermentation liquid over time vs control): test substance 0.05 mmol/kg in UHT sterilized milk, starter 1% (vol/wt); for fermentation promoting effect (pH over time) of mixtures with guanosine in different mixing ratios: adenosine:guanosine 10:0, 7:3, 5:5, 3:7, inosine:guanosine 10:0, 7:3, 5:5, 4:6 (weight ratio), total 0.05 mmol/kg, UHT sterilized milk
Method: (§1) The above test substances were each added to UHT sterilized milk (cow milk sterilized by a UHT method (ultrahigh temperature sterilization method); sterilized at 130° C. for 2 seconds), and warmed to 43° C. […] To the warmed UHT sterilized milk, Streptococcus thermophilus OLS3059 strain (accession number FERM BP-10740) was inoculated as a starter in an inoculation amount of 1% (vol/wt) (corresponding to a bacterial cell concentration of 1 to 2×10^7 cfu/mL), and the fermentation was started at 43° C. As a control, the fermentation using UHT sterilized milk without the above test substances was also carried out. Herein, S. thermophilus OLS3059 strain was cultured using MRS (Difco) at 37° C. for 16 hours for preparation of the bacterial cells to be used in the fermentation below. After culturing using MRS, the bacterial cells were collected by centrifugation (8,000 g for 5 minutes), and then suspended into 0.8% sodium chloride solution. The resulting bacterial cell suspension (bacterial cell concentration of 1 to 2×10^9 cfu/mL) was used as a starter. In the following Examples using S. thermophilus, a S. thermophilus bacterial suspension prepared according to the same method as the present Example was used as a starter, unless otherwise stated.
The pH of the fermentation liquid was measured over time. A decrease in the pH in the lactic acid bacteria culture medium and the fermentation liquid indicates an increase in the amount of lactic acid production associated with the lactic acid bacterial fermentation and is used as an indicator of the progress degree of the lactic acid bacterial fermentation. […]
In this test, a 10 mM solution of each of the test substances (purines) in 0.1N NaOH was added to UHT sterilized milk in an amount such that the concentration of the test substance in the UHT sterilized milk was 0.05 mmol/kg, whereby UHT sterilized milk supplemented with the test substance was prepared. Additionally, as a control, the fermentation using UHT sterilized milk without the test substances (purines) was also carried out.
UHT sterilized milk supplemented with adenine which is a purine base, or a derivative thereof that is adenosine, deoxyadenosine, or adenylic acid (adenosine monophosphate; AMP) added as a test substance, was warmed to 43° C., subsequently S. thermophilus OLS3059 strain was inoculated as a starter in an amount of 1% (vol/wt), and the fermentation was started at 43° C. The pH of the fermentation liquid was measured over time. […]
The fermentation promoting effect on S. thermophilus was examined by the same method as described in Example 2, except that mixtures of adenosine and guanosine in different mixing ratios or mixtures of inosine and guanosine in different mixing ratios were used as test substances.

[2] = system: Lactobacillus acidophilus OLL1836; assay: Fermentation promoting effect in UHT sterilized milk with casein-hydrolyzed peptide, pH over time; conditions: adenylic acid 0.05 mmol/kg or 1:1 mixture 0.025% (wt/wt); UHT sterilized milk with 0.2% casein-hydrolyzed peptide, 43° C.
[3] = system: Lactobacillus delbrueckii subsp. bulgaricus OLL1073R-1; assay: Fermentation promoting effect in UHT sterilized milk, pH over time; conditions: adenylic acid 0.05 mmol/kg or 1:1 mixture 0.025% (wt/wt); UHT sterilized milk with 0.2% casein-hydrolyzed peptide, 43° C.
Method: as §1
(§2) The pH of the fermentation liquid was measured over time. A decrease in the pH in the lactic acid bacteria culture medium and the fermentation liquid indicates an increase in the amount of lactic acid production associated with the lactic acid bacterial fermentation and is used as an indicator of the progress degree of the lactic acid bacterial fermentation.
(§3) Starters (bacterial suspensions) were prepared from the respective bacterial strains by the same method as described in Example 1. The starter was inoculated in an inoculation amount of 1% (vol/wt). Except for these points, the fermentation promoting effect was evaluated in the same manner as in Example 1.
(§4) The preparation method and the inoculation amount (%) of the starter are as described in Example 1. Except for these points, the fermentation promoting effect was evaluated in the same manner as in Example 1.

[4] = system: Lactobacillus helveticus OLL1482; assay: as above; conditions: adenylic acid 0.05 mmol/kg or 1:1 mixture 0.025% (wt/wt); UHT sterilized milk with 0.2% casein-hydrolyzed peptide, 43° C.
Method: as §1, §2, §3, §4

[5] = system: Lactococcus lactis subsp. lactis OLS3445; assay: as above; conditions: adenylic acid 0.05 mmol/kg or 1:1 mixture 0.025% (wt/wt); UHT sterilized milk with 0.2% casein-hydrolyzed peptide, 43° C.
Method: as §1, §2, §3, §4

[6] = system: Lactobacillus gasseri OLL2716; assay: as above; conditions: adenylic acid 0.05 mmol/kg or 1:1 mixture 0.025% (wt/wt); UHT sterilized milk with 0.2% casein-hydrolyzed peptide, 43° C.
Method: as §1, §2, §3, §4

[7] = system: Leuconostoc lactis OLS5167; assay: as above; conditions: adenylic acid 0.05 mmol/kg or 1:1 mixture 0.025% (wt/wt); UHT sterilized milk with 0.2% casein-hydrolyzed peptide, 43° C.
Method: as §1, §2, §3, §4

[8] = system: Lactobacillus johnsonii OLL2725; assay: Fermentation promoting effect in UHT sterilized milk with casein-hydrolyzed peptide, pH over time; conditions: adenylic acid 0.05 mmol/kg or 1:1 mixture 0.025% (wt/wt); UHT sterilized milk with 0.2% casein-hydrolyzed peptide, 43° C.

Row | Compound | fermentation promoting effect (pH of the fermentation liquid over time vs control) [1] | further results
1 | O=c1ccn([C@@H]2O[C@H](CO)[C@@H](O)[C@H]2O)c(=O)[nH]1 [uridine] | did not exhibit the fermentation promoting effects | 
2 | Nc1nc2c(ncn2[C@@H]2O[C@H](CO)[C@@H](O)[C@H]2O)c(=O)[nH]1 [guanosine] | did not exhibit the fermentation promoting effects | fermentation promoting effect (pH over time) of mixtures with guanosine in different mixing ratios [1]: does not exhibit the fermentation promoting effect
3 | Nc1nc2c(ncn2[C@H]2C[C@H](O)[C@@H](CO)O2)c(=O)[nH]1 [deoxyguanosine] | did not exhibit the fermentation promoting effects | 
4 | Cc1c[nH]c(=O)[nH]c1=O [thymine] | did not exhibit the fermentation promoting effects | 
5 | OC[C@H]1O[C@@H](n2cnc3c(O)ncnc32)C[C@@H]1O [deoxyinosine] | notable fermentation promoting effects | 
6 | O=c1cc[nH]c(=O)[nH]1 [uracil] | did not exhibit the fermentation promoting effects | 
7 | Nc1ncnc2c1ncn2[C@@H]1O[C@H](CO)[C@@H](O)[C@H]1O [adenosine] | notable fermentation promoting effects | fermentation promoting effect (pH over time) of mixtures with guanosine in different mixing ratios [1]: exhibit the fermentation promoting effect in a concentration-dependent manner
8 | Nc1ncnc2nc[nH]c12 [adenine] | notable fermentation promoting effects | 
9 | O=c1[nH]c(=O)c2[nH]cnc2[nH]1 [xanthine] | did not exhibit the fermentation promoting effects | 
10 | O=c1[nH]cnc2nc[nH]c12 [hypoxanthine] | notable fermentation promoting effects | 
11 | Nc1nc2nc[nH]c2c(=O)[nH]1 [guanine] | did not exhibit the fermentation promoting effects | 
12 | Nc1ccn([C@@H]2O[C@H](CO)[C@@H](O)[C@H]2O)c(=O)n1 [cytidine] | did not exhibit the fermentation promoting effects | 
13 | adenylic acid [AMP] | notable fermentation promoting effects | fermentation promoting effect (pH over time vs control) [2]: shown in all the strains tested; fermentation promoting effect (pH over time vs control) [3]: shown in all the strains tested; fermentation promoting effect (pH over time vs control) [4]: shown in all the strains tested; fermentation promoting effect (pH over time vs control) [5]: shown in all the strains tested; fermentation promoting effect (pH over time vs control) [6]: shown in all the strains tested; fermentation promoting effect (pH over time vs control) [7]: shown in all the strains tested; fermentation promoting effect (pH over time vs control) [8]: shown in all the strains tested
14 | Cc1cn([C@H]2C[C@H](O)[C@@H](CO)O2)c(=O)[nH]c1=O [thymidine] | did not exhibit the fermentation promoting effects | 
15 | Nc1ncnc2c1ncn2[C@H]1C[C@H](O)[C@@H](CO)O1 [deoxyadenosine] | notable fermentation promoting effects | 
16 | Nc1cc[nH]c(=O)n1 [cytosine] | did not exhibit the fermentation promoting effects | 
17 | OC[C@H]1O[C@@H](n2cnc3c(O)ncnc32)[C@H](O)[C@@H]1O [inosine] | notable fermentation promoting effects | fermentation promoting effect (pH over time) of mixtures with guanosine in different mixing ratios [1]: exhibit the fermentation promoting effect in a concentration-dependent manner
18 | O=c1[nH]c(=O)c2[nH]c(=O)[nH]c2[nH]1 [uric acid] | did not exhibit the fermentation promoting effects | 

From patent US20190307141A1, “LACTIC ACID BACTERIAL FERMENTATION PROMOTING AGENT” (MEIJI CO., LTD., priority 2016, published 2019)
